Experimental data from patent US20140093884A1, “Process for Identifying Novel Anti-Inflammatory Molecules with Reduced Direct Transrepression of Genes Induced by Glucocorticoids” (UNIVERSITE DE STRASBOURG, priority 2011, published 2014).

Experiments:
[1] = tested on: TSLP; experiment: TSLP transcript levels in mouse ear epidermis after topical treatment (Q-RT-PCR); type: in vivo; conditions: WT mice
From the text: Mice. […] Real time PCR. Total RNA was reverse transcribed using hexamers, followed by Q-PCR, as reported (Li et al., 2005). The GC agonist fluocinolone acetonide (FA) was applied to ears of mice concomitantly treated with the “low-calcemic” Vitamin D3 (VitD3) analog MC903 (Calcipotriol; hereafter called MC) to trigger TSLP expression (Li et al., 2006). […] As expected, the expression of the GC-inducible GPX3 (glutathione peroxidase 3) gene which harbours a (+)GRE (Tuckermann et al., 1999) was enhanced by FA (FIG. 10) and inhibited by RU co-treatment, while FA or RU had no effect on MC-dependent expression of the CYP24A1 gene (a VitD3 target) (FIG. 10). […] Although the basal TSLP level was similar in vehicle-treated WT and GR^ep−/− mice, FA blocked MC-induced TSLP expression in WT, but not in GR^ep−/− mice (not shown).

[2] = tested on: TSLP; experiment: Nuclear run-on assay of TSLP expression; type: in vivo, mouse
From the text: Nuclear run-on, EMSA, 3C and Luciferase assays. Nuclear Run-on and EMSA (Carey and Smale., 2001), 3C (Liu et al., 2005) and Luciferase assays (Promega kit) were as described. […] Although the basal TSLP level was similar in vehicle-treated WT and GR^ep−/− mice, FA blocked MC-induced TSLP expression in WT, but not in GR^ep−/− mice (not shown).

[3] = tested on: GPX3 (glutathione peroxidase 3) gene, (+)GRE; experiment: GPX3 transcript levels in mouse ear epidermis after topical treatment (Q-RT-PCR); type: in vivo; conditions: WT mice, ears, topical FA, FIG. 10
From the text: Mice. […] Real time PCR. Total RNA was reverse transcribed using hexamers, followed by Q-PCR, as reported (Li et al., 2005). The GC agonist fluocinolone acetonide (FA) was applied to ears of mice concomitantly treated with the “low-calcemic” Vitamin D3 (VitD3) analog MC903 (Calcipotriol; hereafter called MC) to trigger TSLP expression (Li et al., 2006). […] As expected, the expression of the GC-inducible GPX3 (glutathione peroxidase 3) gene which harbours a (+)GRE (Tuckermann et al., 1999) was enhanced by FA (FIG. 10) and inhibited by RU co-treatment, while FA or RU had no effect on MC-dependent expression of the CYP24A1 gene (a VitD3 target) (FIG. 10).

[4] = tested on: IR nGRE (pGL3(VDRE) IR1 nGRE luciferase reporter); experiment: Luciferase reporter assay in A549 cells, pGL3(VDRE) IR nGRE plasmids; type: cell-based, human
Description: Luciferase reporter assay. A549 cells seeded on 24-well tissue culture plates overnight at 70% confluency were transfected with 100 ng pCMV β galactosidase, 200 ng pGL3 reporter plasmids and wherever indicated, with 600 ng pSG5 hVDR plasmid (Green et al., 1988) into each well and maintained in medium containing charcoal treated FCS. 24 hours post-transfection, medium was changed and different compounds were added to it for 6 hours. […] Luciferase assay was carried out as instructed (Promega). Normalized values are reported as the mean±SEM; each value originates from at least three individual transfections with assays performed in duplicate.
To investigate whether additional DNA elements could be required to generate a repressing activity, the TSLP IR1 nGRE was inserted upstream of an enhancerless SV40 early promoter located 5′ to the luciferase coding sequence of pGL3 vector, A VDRE separated from the IR1 nGRE by a 314 bp-long DNA segment devoid of any known transregulator binding site (not shown) was inserted to generate a luciferase-expressing reporter plasmid (pGL3(VDRE) IR1 nGRE, FIG. 4), which was transfected into A549 cells, followed by addition of VitD3 and/or FA.
(§1) To investigate whether the 1 bp spacer between the inverted repeated motifs of TSLP IR1 nGRE was critical for its repressing function, pGL3-based luciferase plasmids containing the VDRE and TSLP nGRE motifs spaced by 0 to 5 bases (IR0 to IR5 nGREs) were transfected into A549 cells.

[5] = molecular target: T1, GR binding to IR nGREs (Homo sapiens, UniProt P04150); experiment: ChIP assay of GR binding to IR0 to IR5 nGRE reporter plasmids in A549 cells; type: cell-based; conditions: upon FA addition
T1 construct: GR-expressing cells are in vitro cultured cells, preferably human lung epithelial carcinoma cells A549; endogenous in cells; host or cells: A549 (CCL-185, ATCC)
T1 sequence (P04150 1-777): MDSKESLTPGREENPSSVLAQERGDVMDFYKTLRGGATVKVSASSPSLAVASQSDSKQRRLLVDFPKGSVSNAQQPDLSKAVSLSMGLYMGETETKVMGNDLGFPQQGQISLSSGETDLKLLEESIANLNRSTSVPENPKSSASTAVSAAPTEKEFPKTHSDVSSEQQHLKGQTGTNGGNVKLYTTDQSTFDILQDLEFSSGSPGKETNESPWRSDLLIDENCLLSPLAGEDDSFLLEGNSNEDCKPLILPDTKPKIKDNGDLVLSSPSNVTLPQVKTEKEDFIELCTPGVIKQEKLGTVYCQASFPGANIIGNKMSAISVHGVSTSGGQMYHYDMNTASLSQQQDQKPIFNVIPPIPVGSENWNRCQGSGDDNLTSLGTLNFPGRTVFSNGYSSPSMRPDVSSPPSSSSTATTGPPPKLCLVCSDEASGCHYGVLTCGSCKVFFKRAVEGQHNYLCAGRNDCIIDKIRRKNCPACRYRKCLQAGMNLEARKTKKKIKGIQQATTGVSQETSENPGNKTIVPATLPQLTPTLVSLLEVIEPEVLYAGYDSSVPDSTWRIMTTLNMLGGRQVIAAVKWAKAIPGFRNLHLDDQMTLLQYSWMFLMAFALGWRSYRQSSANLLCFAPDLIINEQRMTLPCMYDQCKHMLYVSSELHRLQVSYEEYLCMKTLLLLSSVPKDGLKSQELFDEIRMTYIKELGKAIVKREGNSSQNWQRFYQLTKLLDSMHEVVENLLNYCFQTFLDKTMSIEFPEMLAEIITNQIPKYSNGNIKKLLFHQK
Description: For ChIP assays to test GR and cofactor binding to the nGRE, +GRE or NFκB region of various luciferase reporter plasmids, ˜60% confluent A549 cells in 100 mm TC dish were transfected with 2 μg of respective plasmids using fugene 6 reagent (Roche) and maintained in charcoal treated FCS containing medium. 44 hours post-transfection, 500 nM FA or Dex or RU24858 and/or 5 μM RU486, 5 ng/ml IL-1β (final conc.) was added to the medium for 2 hours, followed by formaldehyde treatment and processing as described above.
as §1

CC1(C)O[C@@H]2C[C@H]3[C@@H]4C[C@H](F)C5=CC(=O)C=C[C@]5(C)[C@@]4(F)[C@@H](O)C[C@]3(C)[C@]2(C(=O)CO)O1 [FA, fluocinolone acetonide]
MC-induced TSLP expression, effect of FA [1]: blocked | inhibition of basal TSLP RNA level ([1]; ears, topical FA): ~50% | MC-induced increase of TSLP RNA, effect of FA ([1]; ears, topical, MC903 co-treatment): fully blocked | nature of GR-mediated FA inhibition of TSLP expression [2]: transcriptional | expression of GPX3 gene [3]: enhanced | reporter genes containing the IR1 nGRE DBS of various genes ([4]; 6 hours, FIG. 13): induces repression | repressing activity with mutant IR1 nGRE to which recombinant GR does not bind ([4]; FA): no FA-inducible repressing activity | basal and VDRE-mediated VitD3-induced luciferase expression in presence of IR1 nGRE ([4]; pGL3(VDRE) IR1 nGRE, FA addition, FIG. 11): decreased expression | change in basal and VitD3-induced luciferase activity for IR3, IR4 and IR5 nGREs ([4]; upon FA addition): no significant change | decrease in basal and VitD3-induced luciferase activity for IR1 and IR2 compared with IR0 nGRE ([4]; upon FA addition): stronger | GR binding to IR0 nGRE (ChIP) [5]: less efficient | GR binding to IR1 and IR2 nGREs (ChIP) [5]: similarly bound | GR binding to IR3, IR4 and IR5 nGREs (ChIP) [5]: not detectable
